Reference: ChEMBL document CHEMBL4651402, “Screening of ~5500 FDA-approved drugs and clinical candidates for anti-SARS-CoV-2 activity” (2021)

Test system: SARS-CoV-2
Assay: microbe, parasite or virus in culture
Conditions: Severe acute respiratory syndrome coronavirus 2, Vero C1008, 48 h

Structure (SMILES): CC(CN1CCOCC1)C(C(=O)N1CCCC1)(c1ccccc1)c1ccccc1 (racemic) [RACEMORAMIDE]
- IC50: > 20 µM
- IC50 (read-out: pIC50 (converted)): > 20 µM

Structure (SMILES): CCC(CC)C(c1ccc(Nc2nc3ccccc3s2)cc1)n1cncn1 (racemic) [TALAROZOLE]
- IC50: > 20 µM
- IC50 (read-out: pIC50 (converted)): > 20 µM

Structure (SMILES): C[C@H]1NC(=O)CO[C@@H]1c1ccccc1 (relative stereo)
- IC50: > 20 µM
- IC50 (read-out: pIC50 (converted)): > 20 µM

Structure (SMILES): C[C@@H]1N=C(N)O[C@@H]1c1ccccc1 (relative stereo)
- IC50: > 20 µM
- IC50 (read-out: pIC50 (converted)): > 20 µM

Structure (SMILES): CO[C@H]1C=C2CCN(C)[C@H]2[C@@H]2c3cc4c(cc3C(=O)O[C@H]21)OCO4 (single isomer, unassigned)
- IC50: > 20 µM
- IC50 (read-out: pIC50 (converted)): > 20 µM

Structure (SMILES): COc1ccc2c(O[C@H]3C[C@@H]4C(=O)N[C@@]5(C(=O)NS(=O)(=O)C6CC6)C[C@@H]5/C=C\CCCCN(C)C(=O)[C@H]4C3)cc(-c3nc(C(C)C)cs3)nc2c1C (single isomer, unassigned)
- IC50: > 20 µM
- IC50 (read-out: pIC50 (converted)): > 20 µM

Structure (SMILES): CCCn1c(=O)c2[nH]c(C3CCCC3)nc2n(CCC)c1=O [1,3-DIPROPYL-8-CYCLOPENTYLXANTHINE [DPCPX]]
- IC50: > 20 µM
- IC50 (read-out: pIC50 (converted)): > 20 µM

Structure (SMILES): NC1(C(=O)O)CC1 [1-Aminocyclopropane carboxylic acid]
- IC50: > 20 µM
- IC50 (read-out: pIC50 (converted)): > 20 µM

Structure (SMILES): Cn1cc(CC(N)C(=O)O)c2ccccc21 (centres undefined) [1-METHYLTRYPTOPHAN]
- IC50: > 20 µM
- IC50 (read-out: pIC50 (converted)): > 20 µM

Structure (SMILES): O=C(/C=C/c1ccccc1)c1ccc(O)cc1O [2',4'-DIHYDROXYCHALCONE]
- IC50: > 20 µM
- IC50 (read-out: pIC50 (converted)): > 20 µM

Structure (SMILES): CC[C@H]1OC(=O)[C@H](C)[C@@H](O[C@H]2C[C@@](C)(OC)[C@@H](O)[C@H](C)O2)[C@H](C)[C@@H](O[C@@H]2O[C@H](C)C[C@H](N(C)C)[C@H]2OC(C)=O)[C@](C)(O)C[C@@H](C)C(=O)[C@H](C)[C@@H](O)[C@]1(C)O [2'-O-ACETYLERYTHROMYCIN A]
- IC50: > 20 µM
- IC50 (read-out: pIC50 (converted)): > 20 µM

Structure (SMILES): O=[N+]([O-])c1ccc(O)c([N+](=O)[O-])c1 [2,4-DINITROPHENOL]
- IC50: > 20 µM
- IC50 (read-out: pIC50 (converted)): > 20 µM

Structure (SMILES): COC1=CC(=O)C=C(OC)C1=O [2,6-DIMETHOXYQUINONE]
- IC50: > 20 µM
- IC50 (read-out: pIC50 (converted)): > 20 µM

Structure (SMILES): CC(=O)c1ccc[nH]1 [2-ACETYLPYRROLE]
- IC50: > 20 µM
- IC50 (read-out: pIC50 (converted)): > 20 µM

Structure (SMILES): CC(O)COC[C@H]1O[C@@H]2O[C@H]3[C@H](O)[C@@H](O)[C@@H](O[C@H]4[C@H](O)[C@@H](O)[C@@H](O[C@H]5[C@H](O)[C@@H](O)[C@@H](O[C@H]6[C@H](O)[C@@H](O)[C@@H](O[C@H]7[C@H](O)[C@@H](O)[C@@H](O[C@H]8[C@H](O)[C@@H](O)[C@@H](O[C@H]1[C@H](O)[C@H]2O)O[C@@H]8COCC(C)O)O[C@@H]7COCC(C)O)O[C@@H]6COCC(C)O)O[C@@H]5COCC(C)O)O[C@@H]4COCC(C)O)O[C@@H]3COCC(C)O (stereo partly drawn) [2-HYDROXYPROPYL-BETA-CYCLODEXTRIN]
- IC50: > 20 µM
- IC50 (read-out: pIC50 (converted)): > 20 µM

Structure (SMILES): O=S(=O)(O)CCS [2-MERCAPTOETHANESULFONIC ACID]
- IC50: > 20 µM
- IC50 (read-out: pIC50 (converted)): > 20 µM

Structure (SMILES): COC1(C)CCC2OC2(C)CCC2C1CC2(C)C (centres undefined) [2-METHOXY-5 (6)EPOXY-TETRAHYDROCARYOPHYLLENE]
- IC50: > 20 µM
- IC50 (read-out: pIC50 (converted)): > 20 µM

Structure (SMILES): COc1cc2c(cc1O)CC[C@@H]1[C@@H]2CC[C@]2(C)[C@@H](O)CC[C@@H]12 [2-METHOXYESTRADIOL]
- IC50: > 20 µM
- IC50 (read-out: pIC50 (converted)): > 20 µM

Structure (SMILES): Cc1[nH]c2ccccc2c1CN(C)C [2-METHYL GRAMINE]
- IC50: > 20 µM
- IC50 (read-out: pIC50 (converted)): > 20 µM

Structure (SMILES): O=C(O)c1ccccn1 [2-PICOLINIC ACID]
- IC50: > 20 µM
- IC50 (read-out: pIC50 (converted)): > 20 µM

Structure (SMILES): O=c1c(O)c(-c2ccccc2)oc2cc(O)ccc12 [3,7-DIHYDROXYFLAVONE]
- IC50: > 20 µM
- IC50 (read-out: pIC50 (converted)): > 20 µM

Structure (SMILES): CC1(C)CC2C1CCC1(C)OC2(C)CCC1O (centres undefined) [3,7-EPOXYCARYOPHYLLAN-6-OL]
- IC50: > 20 µM
- IC50 (read-out: pIC50 (converted)): > 20 µM

Structure (SMILES): CC(=O)c1cc2ccccc2oc1=O [3-ACETYLCOUMARIN]
- IC50: > 20 µM
- IC50 (read-out: pIC50 (converted)): > 20 µM

Structure (SMILES): Cn1c(=O)[nH]c(=O)c2[nH]cnc21 [3-METHYLXANTHINE]
- IC50: > 20 µM
- IC50 (read-out: pIC50 (converted)): > 20 µM

Structure (SMILES): CC1(C)CC23C(=O)CCC(O)C2(C)CCC13 (centres undefined) [3-NOR-3-OXOPANASINSAN-6-OL]
- IC50: > 20 µM
- IC50 (read-out: pIC50 (converted)): > 20 µM

Structure (SMILES): [N-]=[N+]=N[C@]1(CO)O[C@@H](n2ccc(N)nc2=O)[C@H](O)[C@@H]1O [4'-AZIDOCYTIDINE]
- IC50: > 20 µM
- IC50 (read-out: pIC50 (converted)): > 20 µM

Structure (SMILES): COc1ccc(C(=O)/C=C/c2ccccc2)cc1 [4'-METHOXYCHALCONE]
- IC50: > 20 µM
- IC50 (read-out: pIC50 (converted)): > 20 µM

Structure (SMILES): COc1ccc(-c2cc(=O)c3ccccc3o2)cc1 [4'-METHOXYFLAVONE]
- IC50: > 20 µM
- IC50 (read-out: pIC50 (converted)): > 20 µM

Structure (SMILES): N#CCCCSC(=N)N [4-ISOTHIOUREIDOBUTYRONITRILE]
- IC50: > 20 µM
- IC50 (read-out: pIC50 (converted)): > 20 µM

Structure (SMILES): Cc1cc(=O)oc2c(O)c(O)ccc12 [4-METHYLDAPHNETIN]
- IC50: > 20 µM
- IC50 (read-out: pIC50 (converted)): > 20 µM

Structure (SMILES): Cc1cc(=O)oc2cc(O)c(O)cc12 [4-METHYLESCULETIN]
- IC50: > 20 µM
- IC50 (read-out: pIC50 (converted)): > 20 µM

Structure (SMILES): Cc1cc(=O)oc2cc(O)cc(O)c12 [5,7-DIHYDROXY-4-METHYLCOUMARIN]
- IC50: > 20 µM
- IC50 (read-out: pIC50 (converted)): > 20 µM

Structure (SMILES): O=C(O)c1cc2cc(F)ccc2[nH]1 [5-FLUOROINDOLE-2-CARBOXYLIC ACID]
- IC50: > 20 µM
- IC50 (read-out: pIC50 (converted)): > 20 µM

Structure (SMILES): O=c1cc(-c2ccccc2)oc2cccc(O)c12 [5-HYDROXYFLAVONE]
- IC50: > 20 µM
- IC50 (read-out: pIC50 (converted)): > 20 µM

Structure (SMILES): COc1ccc(-c2cc(=O)c3cc(OC)ccc3o2)cc1 [6,4'-DIMETHOXYFLAVONE]
- IC50: > 20 µM
- IC50 (read-out: pIC50 (converted)): > 20 µM

Structure (SMILES): c1cnc2c(c1)CNC2 [6,7-DIHYDRO-5H-PYRROLO[3,4-B]PYRIDINE]
- IC50: > 20 µM
- IC50 (read-out: pIC50 (converted)): > 20 µM

Structure (SMILES): NC(=O)c1ccc(N)nc1 [6-AMINONICOTINAMIDE]
- IC50: > 20 µM
- IC50 (read-out: pIC50 (converted)): > 20 µM

Structure (SMILES): c1ccc(CNc2ncnc3[nH]cnc23)cc1 [6-BENZYLAMINOPURINE]
- IC50: > 20 µM
- IC50 (read-out: pIC50 (converted)): > 20 µM

Structure (SMILES): [N-]=[N+]=CC(=O)CC[C@H](N)C(=O)O [6-DIAZO-5-OXO-L-NORLEUCINE]
- IC50: > 20 µM
- IC50 (read-out: pIC50 (converted)): > 20 µM

Structure (SMILES): Nc1nc(OCc2ccccc2)c2nc[nH]c2n1 [6-O-BENZYLGUANINE]
- IC50: > 20 µM
- IC50 (read-out: pIC50 (converted)): > 20 µM

Structure (SMILES): O=c1cc(-c2ccccc2)oc2c(O)c(O)ccc12 [7,8-DIHYDROXYFLAVONE]
- IC50: > 20 µM
- IC50 (read-out: pIC50 (converted)): > 20 µM

Structure (SMILES): CCc1c2c(nc3ccc(O)cc13)-c1cc3c(c(=O)n1C2)COC(=O)[C@]3(O)CC [7-ETHYL-10-HYDROXYCAMPTOTHECIN]
- IC50: > 20 µM
- IC50 (read-out: pIC50 (converted)): > 20 µM

Structure (SMILES): O=c1cc(-c2ccccc2)oc2cc(O)ccc12 [7-HYDROXYFLAVONE]
- IC50: > 20 µM
- IC50 (read-out: pIC50 (converted)): > 20 µM

Structure (SMILES): Cn1cnc2[nH]c(=O)[nH]c(=O)c21 [7-METHYLXANTHINE]
- IC50: > 20 µM
- IC50 (read-out: pIC50 (converted)): > 20 µM

Structure (SMILES): O=[N+]([O-])c1cccc2cn[nH]c12 [7-NITROINDAZOLE]
- IC50: > 20 µM
- IC50 (read-out: pIC50 (converted)): > 20 µM

Structure (SMILES): Cn1c(=O)c2nc(C3CCCC3)[nH]c2n(C)c1=O [8-CYCLOPENTYLTHEOPHYLLINE]
- IC50: > 20 µM
- IC50 (read-out: pIC50 (converted)): > 20 µM

Structure (SMILES): CC(C)(O)CC[C@@H](O)[C@](C)(O)[C@H]1CC[C@@]2(O)C3=CC(=O)[C@@H]4C[C@@H](O)[C@@H](O)C[C@]4(C)[C@H]3CC[C@]12C [20-HYDROXYECDYSONE]
- IC50: > 20 µM
- IC50 (read-out: pIC50 (converted)): > 20 µM

Structure (SMILES): C[C@@H](N)[C@@H](O)c1ccccc1 [(1S,2R)-PHENYLPROPANOLAMINE]
- IC50: > 20 µM
- IC50 (read-out: pIC50 (converted)): > 20 µM

Structure (SMILES): CC(C)=CCN1CC[C@]2(C)c3cc(O)ccc3C[C@H]1[C@H]2C [(+)-PENTAZOCINE]
- IC50: > 20 µM
- IC50 (read-out: pIC50 (converted)): > 20 µM

Structure (SMILES): N[C@H]1C[C@@H]1c1ccccc1 [(+)-TRANYLCYPROMINE]
- IC50: > 20 µM
- IC50 (read-out: pIC50 (converted)): > 20 µM

Structure (SMILES): N[C@H](CO)C(=O)O [(D)-SERINE]
- IC50: > 20 µM
- IC50 (read-out: pIC50 (converted)): > 20 µM

Structure (SMILES): O=C(O)[C@H]1CCCNC1 [(S)-NIPECOTIC ACID]
- IC50: > 20 µM
- IC50 (read-out: pIC50 (converted)): > 20 µM

Structure (SMILES): O[C@@H](c1cc(C(F)(F)F)nc2c(C(F)(F)F)cccc12)[C@H]1CCCCN1 [(S,R)-MEFLOQUINE]
- IC50: > 20 µM
- IC50 (read-out: pIC50 (converted)): > 20 µM

Structure (SMILES): CC(C)(O)CC(=O)O [.BETA.-HYDROXYISOVALERIC ACID]
- IC50: > 20 µM
- IC50 (read-out: pIC50 (converted)): > 20 µM

Structure (SMILES): Nc1nc(NC2CC2)c2ncn([C@H]3C=C[C@@H](CO)C3)c2n1 [ABACAVIR]
- IC50: > 20 µM
- IC50 (read-out: pIC50 (converted)): > 20 µM

Structure (SMILES): O=C(NCc1ccncc1)C12CC3CC(C1)CC(c1ccc(Cl)cc1)(C3)C2 [ABC-294640]
- IC50: > 20 µM
- IC50 (read-out: pIC50 (converted)): > 20 µM

Structure (SMILES): CN(C)Cc1c(C(=O)NCCOc2ccc(C(=O)NO)cc2)oc2ccccc12 [ABEXINOSTAT]
- IC50: > 20 µM
- IC50 (read-out: pIC50 (converted)): > 20 µM
